Measured values published in the NIST ThermoML archive (doi:10.1021/je049776w).
± gives the expanded uncertainty stated by the source.

What was measured:
[1] = 101.3 kPa, Liquid
[2] = xn = mol fraction of the nth substance listed; settings: 101.3 kPa, Liquid, x2 = 0

| Compound | mass density ([1]; 303.15 K) [kg/m3] | viscosity ([1]; 303.15 K) [mPa·s] | mass density ([1]; 313.15 K) [kg/m3] | viscosity ([1]; 313.15 K) [mPa·s] | mass density ([1]; 323.15 K) [kg/m3] | viscosity ([1]; 323.15 K) [mPa·s] | mass density ([1]; 333.15 K) [kg/m3] | viscosity ([1]; 333.15 K) [mPa·s] | mass density ([1]; 343.15 K) [kg/m3] | viscosity ([1]; 343.15 K) [mPa·s] | mass density ([2]; 303.15 K) [kg/m3] | viscosity ([2]; 303.15 K) [mPa·s] | mass density ([2]; 313.15 K) [kg/m3] | viscosity ([2]; 313.15 K) [mPa·s] | mass density ([2]; 323.15 K) [kg/m3] | viscosity ([2]; 323.15 K) [mPa·s] | mass density ([2]; 333.15 K) [kg/m3] | viscosity ([2]; 333.15 K) [mPa·s] | mass density ([2]; 343.15 K) [kg/m3] | viscosity ([2]; 343.15 K) [mPa·s] | further results |
| --- | --- | --- | --- | --- | --- | --- | --- | --- | --- | --- | --- | --- | --- | --- | --- | --- | --- | --- | --- | --- | --- |
| CN1CCCC1=O [N-methylpyrrolidone] | 1023.47 ± 2.7 | 1.554 ± 0.053 | 1014.55 ± 2.7 | 1.332 ± 0.046 | 1005.66 ± 2.7 | 1.16 ± 0.041 | 996.71 ± 2.6 | 1.022 ± 0.036 | 987.75 ± 2.6 | 0.9084 ± 0.032 | – | – | – | – | – | – | – | – | – | – | mass density ([1]; 353.15 K): 978.76 ± 2.6 kg/m3; viscosity ([1]; 353.15 K): 0.8127 ± 0.029 mPa·s |
| CN1CCCC1=O [N-methylpyrrolidone] + Cc1ccc(C)cc1 | – | – | – | – | – | – | – | – | – | – | 1023.47 ± 2.7 | 1.554 ± 0.053 | 1014.55 ± 2.7 | 1.332 ± 0.046 | 1005.66 ± 2.7 | 1.16 ± 0.041 | 996.71 ± 2.6 | 1.022 ± 0.036 | 987.75 ± 2.6 | 0.9084 ± 0.032 | mass density ([2]; 353.15 K): 978.76 ± 2.6 kg/m3; viscosity ([2]; 353.15 K): 0.8127 ± 0.029 mPa·s |
| C1CCCCC1 [cyclohexane] | 769.1 ± 0.97 | 0.8205 ± 0.021 | 759.61 ± 1 | 0.6963 ± 0.018 | 749.98 ± 1 | 0.5984 ± 0.016 | 740.23 ± 1.1 | 0.5195 ± 0.015 | – | – | – | – | – | – | – | – | – | – | – | – | mass density ([1]; 298.15 K): 773.82 ± 0.96 kg/m3; viscosity ([1]; 298.15 K): 0.9027 ± 0.023 mPa·s |
| C1CCCCC1 [cyclohexane] + Cc1ccc(C)cc1 | – | – | – | – | – | – | – | – | – | – | 769.1 ± 0.97 | 0.8205 ± 0.021 | 759.61 ± 1 | 0.6963 ± 0.018 | 749.98 ± 1 | 0.5984 ± 0.016 | 740.23 ± 1.1 | 0.5195 ± 0.015 | – | – | mass density ([2]; 298.15 K): 773.82 ± 0.96 kg/m3; viscosity ([2]; 298.15 K): 0.9027 ± 0.023 mPa·s |
| CCCCCCC [heptane] | 675.65 ± 1.3 | 0.375 ± 0.012 | 667.08 ± 1.3 | 0.3373 ± 0.011 | 658.37 ± 1.3 | 0.3074 ± 0.011 | 649.53 ± 1.4 | 0.2793 ± 0.01 | 640.47 ± 1.4 | 0.2541 ± 0.0099 | – | – | – | – | – | – | – | – | – | – | mass density ([1]; 298.15 K): 679.9 ± 1.3 kg/m3; viscosity ([1]; 298.15 K): 0.4009 ± 0.012 mPa·s |
| CCCCCCC [heptane] + Cc1ccc(C)cc1 | – | – | – | – | – | – | – | – | – | – | 675.65 ± 1.3 | 0.375 ± 0.012 | 667.08 ± 1.3 | 0.3373 ± 0.011 | 658.37 ± 1.3 | 0.3074 ± 0.011 | 649.53 ± 1.4 | 0.2793 ± 0.01 | 640.47 ± 1.4 | 0.2541 ± 0.0099 | mass density ([2]; 298.15 K): 679.9 ± 1.3 kg/m3; viscosity ([2]; 298.15 K): 0.4009 ± 0.012 mPa·s |
| CCCCCCCC [octane] | 695.72 ± 1.2 | 0.4837 ± 0.014 | 687.5 ± 1.2 | 0.4306 ± 0.013 | 679.37 ± 1.3 | 0.3864 ± 0.012 | 671.02 ± 1.3 | 0.3495 ± 0.011 | 662.54 ± 1.3 | 0.3139 ± 0.011 | – | – | – | – | – | – | – | – | – | – | mass density ([1]; 298.15 K): 699.9 ± 1.2 kg/m3; viscosity ([1]; 298.15 K): 0.5206 ± 0.015 mPa·s; mass density ([1]; 353.15 K): 653.8 ± 1.4 kg/m3; viscosity ([1]; 353.15 K): 0.284 ± 0.01 mPa·s |
| CCCCCCCC [octane] + Cc1ccc(C)cc1 | – | – | – | – | – | – | – | – | – | – | 695.72 ± 1.2 | 0.4837 ± 0.014 | 687.5 ± 1.2 | 0.4306 ± 0.013 | 679.37 ± 1.3 | 0.3864 ± 0.012 | 671.02 ± 1.3 | 0.3495 ± 0.011 | 662.54 ± 1.3 | 0.3139 ± 0.011 | mass density ([2]; 298.15 K): 699.9 ± 1.2 kg/m3; viscosity ([2]; 298.15 K): 0.5206 ± 0.015 mPa·s; mass density ([2]; 353.15 K): 653.8 ± 1.4 kg/m3; viscosity ([2]; 353.15 K): 0.284 ± 0.01 mPa·s |
